In PubChem BioAssay (NCI) one finds TGI and GI50 data, which are given here for 11 molecules.

Some test systems named below: M14 melanoma; A498 renal; K-562 leukemia; PC-3 prostate; UACC-62 melanoma; UO-31 renal; MDA-N; HS 578T breast; SK-OV-3 ovarian; OVCAR-8 ovarian; U251 CNS; OVCAR-4 ovarian.
Common to all, as to assay: growth of human tumour cells (NCI), 48 h

Where “and” joins values, the source holds several entries; their conditions need not be identical. Identical values can stand only once.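 Protocol summary: plate cells (96-well), add compound at 5 concentrations, incubate 48 h, interpolate endpoints linearly. Here, GI50 denotes the concentration required for 50% inhibition of growth. TGI: concentration producing complete growth inhibition.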

As for `Fc1ccc(C(=NCc2ccccc2)N2CCOCC2)cc1`, the TGI with M14 melanoma, in the assay with A498 renal, in the assay with K-562 leukemia, with PC-3 prostate, in the assay on UACC-62 melanoma and in the assay with UO-31 renal was greater than 100 µM throughout. The TGI in the assay on MDA-N, with HS 578T breast, in the assay on SK-OV-3 ovarian, in the assay on OVCAR-8 ovarian and in the assay on U251 CNS was greater than 100 µM in each case.
In the case of `O=c1[nH]c2ccc(CC(=S)N3CCN(c4ccccc4)CC3)cc2s1`, the TGI in the assay on M14 melanoma, with A498 renal, in the assay on K-562 leukemia, with PC-3 prostate, with UACC-62 melanoma and with MDA-N was greater than 100 µM each time. The TGI in the assay on HS 578T breast is greater than 100 µM; with SK-OV-3 ovarian, 44.9 µM; with OVCAR-8 ovarian, 82 µM; in the assay with U251 CNS it was 21.2 µM.
Consider `Cc1nn(-c2ccccc2)c(C)c1/C=N/NC(=O)c1sc(=S)n(-c2ccc(Cl)cc2)c1N`, for which the TGI was greater than 100 µM with M14 melanoma; greater than 100 µM in the assay with A498 renal; greater than 100 µM with K-562 leukemia; greater than 100 µM with PC-3 prostate; 74.1 µM with UACC-62 melanoma; 55.7 µM in the assay with UO-31 renal. Moreover, the TGI in the assay with OVCAR-4 ovarian is 95.7 µM; in the assay on MDA-N, greater than 100 µM; in the assay with HS 578T breast it was 7.6 µM; with SK-OV-3 ovarian, greater than 100 µM; with OVCAR-8 ovarian it was greater than 100 µM; with U251 CNS, greater than 100 µM.
As to `COc1cc(O)c(C(=O)/C=C/c2ccc(O)cc2)cc1Oc1ccc(C(=O)/C=C/c2ccc(O)cc2)c(O)c1`, the TGI with M14 melanoma stood at 12.7 µM; with A498 renal, 5.68 µM; in the assay with K-562 leukemia, 10.7 µM; in the assay with PC-3 prostate, 19.8 µM; in the assay with UACC-62 melanoma, 4.52 µM; in the assay on UO-31 renal, 7.06 µM. The TGI came to 8.37 µM with OVCAR-4 ovarian; 12.1 µM in the assay on MDA-N; 82.8 µM with HS 578T breast; 9.15 µM in the assay on SK-OV-3 ovarian; 7.97 µM with OVCAR-8 ovarian; 4.97 µM in the assay on U251 CNS.
For the molecule `CCC(C#N)N(Cc1cccc(CN(C(C)=O)C(C#N)CC)c1)C(C)=O` (configuration not stated), the TGI in the assay with M14 melanoma, in the assay with A498 renal, with K-562 leukemia, in the assay with PC-3 prostate, in the assay with UACC-62 melanoma and in the assay with UO-31 renal was greater than 100 µM each time. The TGI in the assay on OVCAR-4 ovarian, in the assay with MDA-N, in the assay with HS 578T breast, in the assay on SK-OV-3 ovarian, in the assay with OVCAR-8 ovarian and in the assay on U251 CNS was greater than 100 µM in each case.
In the case of `S=C1c2cc(Cl)ccc2NC(=NC2CCCC2)C2CSCN12` (configuration not stated), the TGI with M14 melanoma, in the assay on A498 renal, in the assay with K-562 leukemia, in the assay with PC-3 prostate, with UACC-62 melanoma and in the assay on UO-31 renal was greater than 100 µM throughout. Further, the TGI in the assay with OVCAR-4 ovarian, with MDA-N, with HS 578T breast, in the assay on SK-OV-3 ovarian, in the assay on OVCAR-8 ovarian and in the assay with U251 CNS was greater than 100 µM in each case.
`Cc1nc2c(=O)[nH]c(=O)nc-2n(CCO)c1C`: the TGI with M14 melanoma, in the assay with A498 renal, with K-562 leukemia, in the assay with PC-3 prostate, in the assay with UACC-62 melanoma and with UO-31 renal was greater than 100 µM each time. Further, the TGI with OVCAR-4 ovarian, in the assay on MDA-N, with HS 578T breast, with SK-OV-3 ovarian, in the assay with OVCAR-8 ovarian and in the assay on U251 CNS was greater than 100 µM in each case.
On to `Nc1nc(Cl)cc(NCC2(CO)CC(CCCCc3ccccc3)C2)n1` (configuration not stated), for which the TGI with M14 melanoma, in the assay on A498 renal, in the assay with K-562 leukemia, in the assay with PC-3 prostate, in the assay on UACC-62 melanoma and in the assay on OVCAR-4 ovarian was greater than 100 µM throughout. For the same molecule, the TGI in the assay with MDA-N, in the assay with HS 578T breast, with SK-OV-3 ovarian, with OVCAR-8 ovarian and with U251 CNS was greater than 100 µM throughout.
For `COc1ccc2cc(C(=O)NCCc3ccccc3)ccc2c1OC`, the TGI in the assay with M14 melanoma, in the assay on A498 renal, with K-562 leukemia, with PC-3 prostate, with UACC-62 melanoma and with OVCAR-4 ovarian was greater than 100 µM in each case. The TGI in the assay on MDA-N, in the assay on HS 578T breast, with SK-OV-3 ovarian, with OVCAR-8 ovarian and in the assay on U251 CNS was greater than 100 µM throughout.
Turning to `CCc1nnc2sc(-c3ccc(-c4ccc(Cl)cc4Cl)o3)nn12`, the TGI in the assay on M14 melanoma, in the assay with A498 renal, in the assay on K-562 leukemia, with PC-3 prostate, in the assay on UO-31 renal and in the assay with OVCAR-4 ovarian was greater than 100 µM each time. For the same molecule, the TGI in the assay on MDA-N, in the assay with HS 578T breast, in the assay on SK-OV-3 ovarian, with OVCAR-8 ovarian and in the assay on U251 CNS was greater than 100 µM in each case.
With `CC(=O)OCC1OC(n2c(-c3ccccc3)c(N=Nc3ccc(Cl)cc3)c(C)c(C#N)c2=S)C(OC(C)=O)C(OC(C)=O)C1OC(C)=O` (configuration not stated), the GI50 was 9.33 µM and 71.1 µM in the assay with M14 melanoma; 2.78 µM and 19.1 µM in the assay on A498 renal; 3.2 µM and 14.4 µM in the assay on UACC-62 melanoma; 5.87 µM and 47.3 µM with UO-31 renal; 13.8 µM and 31.8 µM with OVCAR-4 ovarian; 8.42 µM and 27.3 µM with SK-OV-3 ovarian. For the same molecule, the GI50 in the assay on U251 CNS was 3.79 µM and 24 µM. The TGI in the assay with M14 melanoma was 32.4 µM and > 100 µM; with A498 renal it was 43.5 µM and 70.7 µM; with K-562 leukemia it was 28.6 µM and > 100 µM; in the assay on PC-3 prostate, 37.4 µM and > 100 µM; with UACC-62 melanoma, 15 µM and > 100 µM; with UO-31 renal it was 27.1 µM and > 100 µM. In addition, the TGI with OVCAR-4 ovarian was greater than 100 µM; with MDA-N it was greater than 100 µM; with HS 578T breast, 94 µM and 96.9 µM; in the assay with SK-OV-3 ovarian it was > 100 µM and 76.5 µM; in the assay with U251 CNS, 15.6 µM and 74.4 µM.
